ChEMBL document CHEMBL1671617, “Correlation of antimicrobial resistance with beta-lactamases, the OmpA-like porin, and efflux pumps in clinical isolates of Acinetobacter baumannii endemic to New York City” (2008)

Columns and labels:
Format in all cases: functional
Acinetobacter baumannii [1] = assay: Antimicrobial activity against ISAba1 linked with the blaOXA-51-type beta-lactamase harboring Acinetobacter baumannii alpha clonal group isolate 1 expressing ampC, ompA, adeB, adeM by Etest method
Acinetobacter baumannii [2] = assay: Antimicrobial activity against Acinetobacter baumannii alpha clonal group isolate 2 expressing ampC, ompA, adeB, adeM, aacC1, aadA1 by Etest method
Acinetobacter baumannii [3] = assay: Antimicrobial activity against Acinetobacter baumannii alpha clonal group isolate 3 expressing ampC, ompA, adeB, adeM, aacC1, aadA1 by Etest method
Acinetobacter baumannii [4] = assay: Antimicrobial activity against Acinetobacter baumannii alpha clonal group isolate 4 expressing ampC, ompA, adeB, adeM, aacC1, aadA1 by Etest method
Acinetobacter baumannii [5] = assay: Antimicrobial activity against Acinetobacter baumannii alpha clonal group isolate 5 expressing ampC, ompA, adeB, adeM, aacC1, aadA1 by Etest method
Acinetobacter baumannii [6] = assay: Antimicrobial activity against ISAba1 linked with the blaOXA-51-type beta-lactamase harboring Acinetobacter baumannii alpha clonal group isolate 6 expressing ampC, ompA, adeB, adeM, aacC1, aadA1 by Etest method
Acinetobacter baumannii [7] = assay: Antimicrobial activity against ISAba1 linked with the blaOXA-51-type beta-lactamase harboring Acinetobacter baumannii alpha clonal group isolate 7 expressing ampC, ompA, adeB, adeM, blaSHV-5 by Etest method
Acinetobacter baumannii [8] = assay: Antimicrobial activity against ISAba1 linked with the blaOXA-51-type beta-lactamase harboring Acinetobacter baumannii alpha clonal group isolate 8 expressing ampC, ompA, adeB, adeM, aacC1, aadA1 by Etest method
Acinetobacter baumannii [9] = assay: Antimicrobial activity against ISAba1 linked with the blaOXA-51-type beta-lactamase harboring Acinetobacter baumannii beta clonal group isolate 9 expressing ampC, ompA, adeB, adeM by Etest method
Acinetobacter baumannii [10] = assay: Antimicrobial activity against ISAba1 linked with the blaOXA-51-type beta-lactamase harboring Acinetobacter baumannii beta clonal group isolate 10 expressing ompA, adeB, adeM, aacA4, blaSHV-5 by Etest method
Acinetobacter baumannii [11] = assay: Antimicrobial activity against ISAba1 linked with the blaOXA-51-type beta-lactamase harboring Acinetobacter baumannii beta clonal group isolate 11 expressing ompA, adeB, adeM, blaSHV-5 by Etest method
Acinetobacter baumannii [12] = assay: Antimicrobial activity against ISAba1 linked with the blaOXA-51-type beta-lactamase harboring Acinetobacter baumannii beta clonal group isolate 12 expressing ompA, adeB, adeM, aacA4, aacC2, blaSHV-5 by Etest method
Acinetobacter baumannii [13] = assay: Antimicrobial activity against ISAba1 linked with the blaOXA-51-type beta-lactamase harboring Acinetobacter baumannii beta clonal group isolate 13 expressing ompA, adeB, adeM, aacA4, blaSHV-5 by Etest method
Acinetobacter baumannii [14] = assay: Antimicrobial activity against ISAba1 linked with the blaOXA-51-type beta-lactamase harboring Acinetobacter baumannii beta clonal group isolate 14 expressing ompA, adeB, adeM, aacA4, blaSHV-5 by Etest method
Acinetobacter baumannii [15] = assay: Antimicrobial activity against ISAba1 linked with the blaOXA-51-type beta-lactamase harboring Acinetobacter baumannii beta clonal group isolate 15 expressing ompA, adeB, adeM, aacA4, blaSHV-5 by Etest method
Acinetobacter baumannii [16] = assay: Antimicrobial activity against ISAba1 linked with the blaOXA-51-type beta-lactamase harboring Acinetobacter baumannii beta clonal group isolate 16 expressing ompA, adeB, adeM, aacA4, blaSHV-5 by Etest method
Acinetobacter baumannii [17] = assay: Antimicrobial activity against ISAba1 linked with the blaOXA-51-type beta-lactamase harboring Acinetobacter baumannii beta clonal group isolate 17 expressing ompA, adeB, adeM, aacA4, blaSHV-5 by Etest method
Acinetobacter baumannii [18] = assay: Antimicrobial activity against ISAba1 linked with the blaOXA-51-type beta-lactamase harboring Acinetobacter baumannii beta clonal group isolate 18 expressing ompA, adeB, adeM, aacA4, blaSHV-5 by Etest method
Acinetobacter baumannii [19] = assay: Antimicrobial activity against ISAba1 linked with the blaOXA-51-type beta-lactamase harboring Acinetobacter baumannii zeta clonal group isolate 19 expressing ampC, ompA, adeB, adeM, aacC2 by Etest method
Acinetobacter baumannii [20] = assay: Antimicrobial activity against ISAba1 linked with the blaOXA-51-type beta-lactamase harboring Acinetobacter baumannii zeta clonal group isolate 20 expressing ampC, ompA, adeB, adeM, aacC2 by Etest method
Acinetobacter baumannii [21] = assay: Antimicrobial activity against ISAba1 linked with the blaOXA-51-type beta-lactamase harboring Acinetobacter baumannii zeta clonal group isolate 21 expressing ampC, ompA, adeB, adeM, aacC2, blaSHV-5 by Etest method
Acinetobacter baumannii [22] = assay: Antimicrobial activity against ISAba1 linked with the blaOXA-51-type beta-lactamase harboring Acinetobacter baumannii zeta clonal group isolate 22 expressing ampC, ompA, adeB, adeM, aadA1, aacA4, aacC2, blaSHV-5 by Etest method
Acinetobacter baumannii [23] = assay: Antimicrobial activity against ISAba1 linked with the blaOXA-51-type beta-lactamase harboring Acinetobacter baumannii zeta clonal group isolate 23 expressing ampC, ompA, adeB, adeM, aadA1, aacA4, aacC2, aphA6 by Etest method
Acinetobacter baumannii [24] = assay: Antimicrobial activity against ISAba1 linked with the blaOXA-51-type beta-lactamase harboring Acinetobacter baumannii zeta clonal group isolate 24 expressing ampC, ompA, adeB, adeM, aadA1, aacA4, aacC2, blaSHV-5 by Etest method
Acinetobacter baumannii [25] = assay: Antimicrobial activity against ISAba1 linked with the blaOXA-51-type beta-lactamase harboring Acinetobacter baumannii zeta clonal group isolate 25 expressing ampC, ompA, adeB, adeM, aadA1, aacA4, aacC2, blaSHV-5 by Etest method
Acinetobacter baumannii [26] = assay: Antimicrobial activity against ISAba1 linked with the blaOXA-51-type beta-lactamase harboring Acinetobacter baumannii zeta clonal group isolate 26 expressing ampC, ompA, adeB, adeM, aadA1, aacA4, aacC2, blaSHV-5 by Etest method
Acinetobacter baumannii [27] = assay: Antimicrobial activity against Acinetobacter baumannii lambda clonal group isolate 27 expressing ampC, ompA, adeB, adeM, aadB, aadA1 by Etest method
Acinetobacter baumannii [28] = assay: Antimicrobial activity against ISAba1 linked with the blaOXA-51-type beta-lactamase harboring Acinetobacter baumannii lambda clonal group isolate 28 expressing ampC, ompA, adeM, aadB, aadA1 by Etest method
Acinetobacter baumannii [29] = assay: Antimicrobial activity against ISAba1 linked with the blaOXA-51-type beta-lactamase harboring Acinetobacter baumannii lambda clonal group isolate 29 expressing ampC, ompA, adeM, aadB, aadA1 by Etest method
Acinetobacter baumannii [30] = assay: Antimicrobial activity against ISAba1 linked with the blaOXA-51-type beta-lactamase harboring Acinetobacter baumannii lambda clonal group isolate 30 expressing ampC, ompA, adeB, adeM, aadB, aadA1 by Etest method
Acinetobacter baumannii [31] = assay: Antimicrobial activity against Acinetobacter baumannii nu clonal group isolate 31 expressing ampC, ompA, adeB, adeM, aadB, aadA2 by Etest method
Acinetobacter baumannii [32] = assay: Antimicrobial activity against Acinetobacter baumannii nu clonal group isolate 32 expressing ampC, ompA, adeB, adeM, aadB, aadA2 by Etest method
Acinetobacter baumannii [33] = assay: Antimicrobial activity against Acinetobacter baumannii nu clonal group isolate 33 expressing ampC, ompA, adeB, adeM by Etest method
Acinetobacter baumannii [34] = assay: Antimicrobial activity against Acinetobacter baumannii nu clonal group isolate 34 expressing ampC, ompA, adeB, adeM by Etest method
Acinetobacter baumannii [35] = assay: Antimicrobial activity against Acinetobacter baumannii eta clonal group isolate 35 expressing ampC, ompA, adeB, adeM by Etest method
Acinetobacter baumannii [36] = assay: Antimicrobial activity against Acinetobacter baumannii eta clonal group isolate 36 expressing ampC, ompA, adeB, adeM by Etest method
Acinetobacter baumannii [37] = assay: Antimicrobial activity against Acinetobacter baumannii unique clonal group isolate 37 expressing ampC, ompA, adeB, adeM by Etest method
Acinetobacter baumannii [38] = assay: Antimicrobial activity against Acinetobacter baumannii unique clonal group isolate 38 expressing ampC, ompA, adeB, adeM by Etest method
Acinetobacter baumannii [39] = assay: Antimicrobial activity against Acinetobacter baumannii unique clonal group isolate 39 expressing ampC, ompA, adeM by Etest method
Acinetobacter baumannii [40] = assay: Antimicrobial activity against ISAba1 linked with the blaOXA-51-type beta-lactamase harboring Acinetobacter baumannii unique clonal group isolate 40 expressing ampC, ompA, adeB, adeM, aadA1, aacA4, aacC2, blaSHV-5 by Etest method

Measured: MIC

NCC[C@H](O)C(=O)N[C@@H]1C[C@H](N)[C@@H](O[C@H]2O[C@H](CN)[C@@H](O)[C@H](O)[C@H]2O)[C@H](O)[C@H]1O[C@H]1O[C@H](CO)[C@@H](O)[C@H](N)[C@H]1O [AMIKACIN]
< 0.5 µg/mL: Acinetobacter baumannii [27]
1.5 µg/mL: Acinetobacter baumannii [1] | Acinetobacter baumannii [6] | Acinetobacter baumannii [38] | Acinetobacter baumannii [39]
32 µg/mL: Acinetobacter baumannii [24] | Acinetobacter baumannii [25] | Acinetobacter baumannii [26] | Acinetobacter baumannii [40]
4 µg/mL: Acinetobacter baumannii [8] | Acinetobacter baumannii [9] | Acinetobacter baumannii [31] | Acinetobacter baumannii [32]
2 µg/mL: Acinetobacter baumannii [2] | Acinetobacter baumannii [3] | Acinetobacter baumannii [4] | Acinetobacter baumannii [5] | Acinetobacter baumannii [7]
8 µg/mL: Acinetobacter baumannii [13] | Acinetobacter baumannii [14] | Acinetobacter baumannii [15] | Acinetobacter baumannii [16] | Acinetobacter baumannii [17]
24 µg/mL: Acinetobacter baumannii [12] | Acinetobacter baumannii [18] | Acinetobacter baumannii [23]
48 µg/mL: Acinetobacter baumannii [22] | Acinetobacter baumannii [30]
6 µg/mL: Acinetobacter baumannii [10] | Acinetobacter baumannii [37]
3 µg/mL: all other assays above

C[C@H]1COc2c(N3CCN(C)CC3)c(F)cc3c(=O)c(C(=O)O)cn1c23.C[C@H]1COc2c(N3CCN(C)CC3)c(F)cc3c(=O)c(C(=O)O)cn1c23.O [LEVOFLOXACIN]
32 µg/mL: Acinetobacter baumannii [8]
0.09 µg/mL: Acinetobacter baumannii [39]
12 µg/mL: Acinetobacter baumannii [19] | Acinetobacter baumannii [20] | Acinetobacter baumannii [23]
4 µg/mL: Acinetobacter baumannii [33] | Acinetobacter baumannii [34]
> 6 µg/mL: Acinetobacter baumannii [35] | Acinetobacter baumannii [36]
6 µg/mL: Acinetobacter baumannii [6] | Acinetobacter baumannii [7] | Acinetobacter baumannii [37]
16 µg/mL: Acinetobacter baumannii [1] | Acinetobacter baumannii [22] | Acinetobacter baumannii [24] | Acinetobacter baumannii [25] | Acinetobacter baumannii [26] | Acinetobacter baumannii [30]
> 12 µg/mL: Acinetobacter baumannii [2] | Acinetobacter baumannii [3] | Acinetobacter baumannii [4] | Acinetobacter baumannii [5] | Acinetobacter baumannii [31] | Acinetobacter baumannii [32]
3 µg/mL: Acinetobacter baumannii [27]
0.13 µg/mL: Acinetobacter baumannii [38]
not listed: Acinetobacter baumannii [28] | Acinetobacter baumannii [29]
> 32 µg/mL: all other assays above

GENTAMICIN
64 µg/mL: Acinetobacter baumannii [18]
4 µg/mL: Acinetobacter baumannii [10]
8 µg/mL: Acinetobacter baumannii [6] | Acinetobacter baumannii [13] | Acinetobacter baumannii [14] | Acinetobacter baumannii [15] | Acinetobacter baumannii [16] | Acinetobacter baumannii [17]
192 µg/mL: Acinetobacter baumannii [8]
1 µg/mL: Acinetobacter baumannii [1]
2 µg/mL: Acinetobacter baumannii [7] | Acinetobacter baumannii [11] | Acinetobacter baumannii [33] | Acinetobacter baumannii [34]
3 µg/mL: Acinetobacter baumannii [35] | Acinetobacter baumannii [36]
0.25 µg/mL: Acinetobacter baumannii [38]
0.38 µg/mL: Acinetobacter baumannii [39]
1.5 µg/mL: Acinetobacter baumannii [27]
16 µg/mL: Acinetobacter baumannii [28] | Acinetobacter baumannii [29]
6 µg/mL: Acinetobacter baumannii [9] | Acinetobacter baumannii [37]
12 µg/mL: Acinetobacter baumannii [2] | Acinetobacter baumannii [3] | Acinetobacter baumannii [4] | Acinetobacter baumannii [5]
> 256 µg/mL: all other assays above
